Measured values published in PubChem BioAssay AID328 (DTP/NCI, 2004).
Several values for one entry are separate records, joined by “and”; a condition that tells them apart may be missing. Identical values can stand only once. Toxic doses and inconclusive results are not listed.

Tested on: BDF1 mice, P388 leukemia ip, median survival T/C
Test: NCI In Vivo Anticancer Drug Screen. Data for tumor model P388 Leukemia (intraperitoneal) in B6D2F1 (BDF1) mice
Conditions: endpoint: median survival time, higher = longer survival
Method in brief: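 In tumour-bearing mice, survival after compound treatment is set against the vehicle group and given as a quotient.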

[1] = dose: 100.0 mg/kg/injection, schedule: Q04DX003 (ip), vehicle: saline with Tween-80
[2] = dose: 200.0 mg/kg/injection, schedule: Q04DX003 (ip), vehicle: saline with Tween-80
[3] = dose: 25.0 mg/kg/injection, schedule: Q01DX009 (ip), vehicle: saline with Tween-80
[4] = dose: 50.0 mg/kg/injection, schedule: Q01DX009 (ip), vehicle: saline with Tween-80
[5] = dose: 150.0 mg/kg/injection, schedule: Q04DX003 (ip), vehicle: saline
[6] = dose: 300.0 mg/kg/injection, schedule: Q04DX003 (ip), vehicle: saline
[7] = dose: 100.0 mg/kg/injection, schedule: Q01DX009 (ip), vehicle: saline with Tween-80
[8] = dose: 200.0 mg/kg/injection, schedule: Q01DX009 (ip), vehicle: saline with Tween-80
[9] = dose: 100.0 mg/kg/injection, schedule: Q04DX003 (ip), vehicle: Klucel (hydroxypropylcellulose) (HPC)
[10] = dose: 200.0 mg/kg/injection, schedule: Q04DX003 (ip), vehicle: Klucel (hydroxypropylcellulose) (HPC)
[11] = dose: 400.0 mg/kg/injection, schedule: Q04DX003 (ip), vehicle: Klucel (hydroxypropylcellulose) (HPC)
[12] = dose: 400.0 mg/kg/injection, schedule: Q04DX003 (ip), vehicle: saline with Tween-80

For `CC1=CC23C(COC(=O)C24CO4)C(C(=O)O)=CC3C1C` (stereo unspecified) (tested in a mixture with another compound), the T/C (dose: 0.06 mg/kg/injection, schedule: Q01DX009 (ip), vehicle: Klucel (hydroxypropylcellulose) (HPC)) was 105 % of control, the T/C (dose: 0.13 mg/kg/injection, schedule: Q01DX009 (ip), vehicle: Klucel (hydroxypropylcellulose) (HPC)) was 100 % of control and the T/C (dose: 0.25 mg/kg/injection, schedule: Q01DX009 (ip), vehicle: Klucel (hydroxypropylcellulose) (HPC)) was 105 % of control and 116 % of control.
For `O=CN(O)CC(=O)O.[Cu]`, the T/C (dose: 1.16 mg/kg/injection, schedule: Q04DX003 (ip), vehicle: saline) was 95 % of control, the T/C (dose: 1.77 mg/kg/injection, schedule: Q04DX003 (ip), vehicle: saline) was 95 % of control and the T/C (dose: 2.65 mg/kg/injection, schedule: Q04DX003 (ip), vehicle: saline) was 90 % of control. For the same molecule, the T/C (dose: 3.9 mg/kg/injection, schedule: Q04DX003 (ip), vehicle: saline) was 90 % of control, the T/C (dose: 6.0 mg/kg/injection, schedule: Q04DX003 (ip), vehicle: saline) was 100 % of control and the T/C (dose: 9.0 mg/kg/injection, schedule: Q04DX003 (ip), vehicle: saline) was 113 % of control. For the same molecule, the T/C (dose: 10.0 mg/kg/injection, schedule: Q01DX001 (ip), vehicle: saline) was 100 % of control, the T/C (dose: 13.0 mg/kg/injection, schedule: Q04DX003 (ip), vehicle: saline) was 104 % of control and the T/C (dose: 20.0 mg/kg/injection, schedule: Q01DX001 (ip), vehicle: saline) was 118 % of control.
`O=C(O)CCC(=O)/C=C1/Nc2ccccc2C1=O` was tested, and the T/C [1] was 110 % of control and the T/C [2] was 120 % of control.
With `NNC(=O)CCc1ccccc1Br` the T/C [3] was 100 % of control and the T/C [4] was 100 % of control.
In the case of `N#CC(c1ccccc1)C1CCCCC1` (stereo unspecified), the T/C (dose: 75.0 mg/kg/injection, schedule: Q04DX003 (ip), vehicle: saline) is reported as 111 % of control, the T/C [5] is reported as 107 % of control and the T/C [6] is reported as 115 % of control.
For `CC(=O)[C@H]1CC[C@H]2[C@@H]3CCC4=CC(=O)[C@H](C)C[C@]4(C)[C@H]3C(=O)C[C@]12C`, the T/C [7] was 90 % of control and the T/C [8] was 95 % of control.
For `O=c1c(O)c(-c2ccccc2)oc2ccccc12`, the T/C (dose: 100.0 mg/kg/injection, schedule: Q01DX009 (ip), vehicle: Klucel (hydroxypropylcellulose) (HPC)) was 95 % of control, the T/C [9] was 91 % of control and 103 % of control and the T/C (dose: 200.0 mg/kg/injection, schedule: Q01DX009 (ip), vehicle: Klucel (hydroxypropylcellulose) (HPC)) was 100 % of control. The T/C [10] was 91 % of control and 92 % of control, the T/C (dose: 400.0 mg/kg/injection, schedule: Q01DX009 (ip), vehicle: Klucel (hydroxypropylcellulose) (HPC)) was 108 % of control and the T/C [11] was 95 % of control and 96 % of control.
With `CC12CCC3C(CCC4=CC(=O)C(C(O)(C(F)(F)F)C(F)(F)F)CC43C)C1CC(C(O)(C(F)(F)F)C(F)(F)F)C2=O` (stereo unspecified) the T/C (dose: 100.0 mg/kg/injection, schedule: Q01DX001 (sc), vehicle: steriod suspending solution) was 100 % of control, the T/C (dose: 200.0 mg/kg/injection, schedule: Q01DX001 (sc), vehicle: steriod suspending solution) was 100 % of control and the T/C (dose: 400.0 mg/kg/injection, schedule: Q01DX001 (sc), vehicle: steriod suspending solution) was 95 % of control.
In the case of `CCCCC(C)C(=O)CC(SCC)c1ccc(Cl)c(Cl)c1` (stereo unspecified), the T/C [4] is reported as 99 % of control, the T/C [7] is reported as 99 % of control and the T/C [8] is reported as 96 % of control.
In the case of `CNC(=S)NNC(=O)C1CC1`, the T/C (dose: 50.0 mg/kg/injection, schedule: Q01DX005 (ip), vehicle: saline) is reported as 94 % of control, the T/C (dose: 100.0 mg/kg/injection, schedule: Q01DX005 (ip), vehicle: saline) is reported as 107 % of control and the T/C (dose: 200.0 mg/kg/injection, schedule: Q01DX005 (ip), vehicle: saline) is reported as 94 % of control.
`Cc1ncc([N+](=O)[O-])n1CCN/C=C/C#N` was tested, and the T/C [1] was 111 % of control, the T/C [2] was 123 % of control and the T/C [12] was 120 % of control.
In the case of `COC(=O)C1(C(=O)OC)C2CC(C)=C(C)CC21` (stereo unspecified), the T/C [5] is reported as 95 % of control and the T/C [6] is reported as 95 % of control.
With `COc1cc2nc(C)n(C)c(=O)c2cc1OC` the T/C [4] was 101 % of control, the T/C [7] was 99 % of control and the T/C [8] was 99 % of control.
For `CN(C)CCCn1c(=O)c2ccccc2c2ccccc21`, the T/C (dose: 12.5 mg/kg/injection, schedule: Q01DX010 (ip), vehicle: saline) was 90 % of control, the T/C (dose: 25.0 mg/kg/injection, schedule: Q01DX010 (ip), vehicle: saline) was 90 % of control and the T/C (dose: 50.0 mg/kg/injection, schedule: Q01DX010 (ip), vehicle: saline) was 90 % of control.
`O=C(CC(O)(C(F)(F)F)C(F)(F)F)c1cccs1` was tested, and the T/C (dose: 132.0 mg/kg/injection, schedule: Q04DX003 (ip), vehicle: saline with Tween-80) was 105 % of control.
In the case of `C=C(C)C1CC=C(/C=N/O)CC1` (stereo unspecified), the T/C [1] is reported as 100 % of control, the T/C [2] is reported as 100 % of control and the T/C [12] is reported as 95 % of control.
With `CC(C)(C)NC1=NCCO1` the T/C [3] was 100 % of control, the T/C [4] was 100 % of control and the T/C [7] was 100 % of control.
With `CCOC(=O)N1N(C(=O)c2ccccc2)C(=O)CC1(C)C` the T/C (dose: 200.0 mg/kg/injection, schedule: Q01DX001 (ip), vehicle: other) was 100 % of control and the T/C (dose: 400.0 mg/kg/injection, schedule: Q01DX001 (ip), vehicle: other) was 109 % of control.
`CCN(CC)S(=O)(=O)c1ccc(C(=O)O)cc1` was tested, and the T/C [9] was 100 % of control, the T/C [10] was 104 % of control and the T/C [11] was 100 % of control.
`COc1cccc2c1C(=O)c1c(O)c3c(c(O)c1C2=O)C[C@@](O)(C(=O)O)C[C@@H]3OC1CC(N)C(O)C(C)O1` (stereo partly specified) was tested, and the T/C (dose: 1.56 mg/kg/injection, schedule: Q01DX009 (ip), vehicle: water) was 100 % of control, the T/C (dose: 3.12 mg/kg/injection, schedule: Q01DX009 (ip), vehicle: water) was 107 % of control and 109 % of control and the T/C (dose: 6.25 mg/kg/injection, schedule: Q01DX009 (ip), vehicle: water) was 93 % of control.
For `CCP(=Nc1cc(C(c2ccccc2)(c2ccccc2)c2ccccc2)cc(C(C)(C)C)c1O)(c1ccccc1)c1ccccc1`, the T/C [4] was 107 % of control, the T/C [7] was 116 % of control and the T/C [8] was 89 % of control.
With `COC(=O)CCCCI` the T/C (dose: 50.0 mg/kg/injection, schedule: Q01DX005 (ip), vehicle: saline with Tween-80) was 105 % of control, the T/C (dose: 100.0 mg/kg/injection, schedule: Q01DX005 (ip), vehicle: saline with Tween-80) was 110 % of control and the T/C (dose: 200.0 mg/kg/injection, schedule: Q01DX005 (ip), vehicle: saline with Tween-80) was 107 % of control.
For `Cc1ccc(N=Cc2ccccc2O)cc1Cl`, the T/C (dose: 100.0 mg/kg/injection, schedule: Q01DX001 (ip), vehicle: saline with Tween-80) was 109 % of control, the T/C (dose: 200.0 mg/kg/injection, schedule: Q01DX001 (ip), vehicle: saline with Tween-80) was 100 % of control and the T/C (dose: 400.0 mg/kg/injection, schedule: Q01DX001 (ip), vehicle: saline with Tween-80) was 100 % of control.
`O=Cc1[nH]c(=S)[nH]c(=O)c1Cc1ccccc1Cl` was tested, and the T/C [9] was 100 % of control, the T/C [10] was 100 % of control and the T/C [11] was 100 % of control.
With `Cc1cc(N(CCCl)CCCl)c(C)cc1NC(=O)c1ccccc1` the T/C (dose: 12.5 mg/kg/injection, schedule: Q01DX009 (ip), vehicle: saline with Tween-80) was 195 % of control, the T/C (dose: 16.5 mg/kg/injection, schedule: Q04DX003 (ip), vehicle: Klucel (hydroxypropylcellulose) (HPC)) was 190 % of control and the T/C (dose: 25.0 mg/kg/injection, schedule: Q04DX003 (ip), vehicle: Klucel (hydroxypropylcellulose) (HPC)) was 118 % of control. The T/C (dose: 37.5 mg/kg/injection, schedule: Q04DX003 (ip), vehicle: Klucel (hydroxypropylcellulose) (HPC)) was 113 % of control.
For `CN(C)c1oc2ccc3ccccc3c2c(=O)c1C#N`, the T/C [4] was 95 % of control, the T/C [7] was 97 % of control and the T/C [8] was 92 % of control.
`CCOC1NC(C)(C)CO1` (stereo unspecified) was tested, and the T/C (dose: 100.0 mg/kg/injection, schedule: Q04DX003 (ip), vehicle: saline) was 100 % of control, the T/C (dose: 200.0 mg/kg/injection, schedule: Q04DX003 (ip), vehicle: saline) was 91 % of control and the T/C (dose: 400.0 mg/kg/injection, schedule: Q04DX003 (ip), vehicle: saline) was 95 % of control.
For `CC(=O)c1ccccc1NC=O`, the T/C [1] was 100 % of control, the T/C [2] was 104 % of control and the T/C [12] was 108 % of control.
`CC(=O)NS(=O)(=O)c1ccc(NC(=O)/C=C/C(=O)O)cc1` was tested, and the T/C [1] was 104 % of control, the T/C [2] was 118 % of control and the T/C [12] was 104 % of control.
`OC(O)C(F)(F)F` was tested, and the T/C (dose: 15.0 mg/kg/injection, schedule: Q04DX003 (ip), vehicle: saline with Tween-80) was 100 % of control, the T/C (dose: 30.0 mg/kg/injection, schedule: Q04DX003 (ip), vehicle: saline with Tween-80) was 100 % of control and the T/C (dose: 60.0 mg/kg/injection, schedule: Q04DX003 (ip), vehicle: saline with Tween-80) was 95 % of control. For the same molecule, the T/C [1] was 104 % of control, the T/C [2] was 113 % of control and the T/C [12] was 104 % of control.
